In patent US4025533A, “5-Bromo-5-nitro-2-alkylsubstituted-1,3-dioxane” (Eli Lilly and Company, priority 1976, dated 1977):
Values after ≈ are worked out from the molar mass of the structure shown.

Columns and labels:
Propionibacterium acnes = assay: conventional tube dilution test, anaerobic; type: cell-based; conditions: Cutibacterium acnes, medium pH 6.9, read-out: minimum inhibitory concentration
Experimental: For example, 5-bromo-2-methyl-5-nitro-1,3-dioxane (Compound C) was tested against Propionibacterium acnes (formerly called Corynebacterium acnes) in a conventional tube dilution test. A simultaneous test was run utilizing 2-bromo-2-nitropropane,1,3-diol (Compound A) and 5-bromo-5-nitro-1,3-dioxane (Compound B) as the antimicrobials.
The test against Propionibacterium acnes were run anaerobically in the following medium:
(§1) Distilled water q.s. -- 1000 ml
The pH of the medium was 6.9

Pseudomonas aeruginosa [1] = assay: agar plate system (Table II); type: cell-based; conditions: antibiotic medium 1, 72 hours at 30° C., read-out: Minimum Inhibitory Concentration
Experimental: (§2) The antimicrobial activities of Compounds A, B, C, D, E and F were also determined in an agar plate system. The compounds were added to melted and cooled (50° C.) agar in twofold concentration increments from 50 mcg per ml of agar to 1.56 mcg per ml of agar. Antibiotic medium 1 [CFR 436.102(1)] was used for testing of Pseudomonas aeruginosa, Staphylococcus aureus, Escherichia coli, and Streptococcus faecalis, but antibiotic medium 22 [CFR 436.102(22)] was used for testing of Candida albicans and Aspergillus niger. Organism suspensions containing 10^6 organisms per ml were used as stock suspensions. Sterile cotton swabs were dipped in the suspensions and then streaked across the solidified agar. The figures shown in Table II were the lowest concentrations at which no growth occurred after 72 hours at 30° C. These values were interpreted as the minimum inhibitory concentration (MIC).

Streptococcus faecalis [2] = assay: agar plate system (Table II); type: cell-based; conditions: Enterococcus faecalis, antibiotic medium 1, 72 hours at 30° C., read-out: Minimum Inhibitory Concentration
Experimental: as §2

Candida albicans [3] = assay: agar plate system (Table II); type: cell-based; conditions: antibiotic medium 22, 72 hours at 30° C., read-out: Minimum Inhibitory Concentration
Experimental: as §2

Staphylococcus aureus [4] = assay: agar plate system (Table II); type: cell-based; conditions: antibiotic medium 1, 72 hours at 30° C., read-out: Minimum Inhibitory Concentration
Experimental: as §2

Escherichia coli [5] = assay: agar plate system (Table II); type: cell-based; conditions: antibiotic medium 1, 72 hours at 30° C., read-out: Minimum Inhibitory Concentration
Experimental: as §2

Aspergillus niger [6] = assay: agar plate system (Table II); type: cell-based; conditions: antibiotic medium 22, 72 hours at 30° C., read-out: Minimum Inhibitory Concentration
Experimental: as §2

Pseudomonas aeruginosa [7] = assay: conventional tube dilution test (Table I); type: cell-based; conditions: 48 h, antibiotic Number 3 medium, two days at 37° C., read-out: Minimum Inhibitory Concentration
Experimental: (§3) The in vitro antimicrobial activities of Compounds A, B and C, 5-bromo-2-ethyl-5-nitro-1,3-dioxane (Compound D), 5-bromo-5-nitro-2-n-propyl-1,3-dioxane (Compound E), and 5-bromo-2-isopropyl-5-nitro-1,3-dioxane (Compound F) were determined concurrently against Pseudomonas aeruginosa, Staphylococcus aureus, Escherichia coli, and Streptococcus faecalis in a conventional tube dilution test. The medium used was antibiotic Number 3 [CFR 436.102(3)] and the concentration of organisms was 10^4 organisms per ml of medium, with each tube being inoculated with 0.1 ml of inoculum. The figures shown in Table I are the lowest concentrations in mcg of active compound/ml of medium where no growth occurred in the medium after two days' incubation at 37° C.

Streptococcus faecalis [8] = assay: conventional tube dilution test (Table I); type: cell-based; conditions: Enterococcus faecalis, 48 h, antibiotic Number 3 medium, two days at 37° C., read-out: Minimum Inhibitory Concentration
Experimental: as §3

Staphylococcus aureus [9] = assay: conventional tube dilution test (Table I); type: cell-based; conditions: 48 h, antibiotic Number 3 medium, two days at 37° C., read-out: Minimum Inhibitory Concentration
Experimental: as §3

Escherichia coli [10] = assay: conventional tube dilution test (Table I); type: cell-based; conditions: 48 h, antibiotic Number 3 medium, two days at 37° C., read-out: Minimum Inhibitory Concentration
Experimental: as §3

[11] = prior art; cited from earlier work
Microsporum gypseum = assay: In Vitro Antifungal Activity, agar plates (Table III); type: cell-based; conditions: Nannizzia gypsea, 72 h, three days at 25° C., pH 5.7, read-out: Minimum Inhibitory Concentration
Experimental: (§4) Compounds A, B, and C were tested further to determine antifungal activity. The compounds were added to melted and cooled (50° C.) agar to obtain concentrations of 100, 50, 25, 12.5, 6.25 and 0.0 mcg per ml of agar. After the agar solidified, sterile cotton swabs were dipped in stock suspensions of the organisms (10^6 organisms per ml of physiological saline) and then streaked across the agar. After three days' incubation at 25° C., concentrations which prevented growth were recorded as the minimal inhibitory concentration. The composition of the medium used in this study was as follows:
(§5) Calcium carbonate -- 0.5 g
(§6) V-8 juice filtrate -- 200.0 ml
as §1
(§7) The pH was adjusted to 5.7.

[12] = system: Saccharomyces pastorianus; assay: as above; type: cell-based; conditions: 72 h, three days at 25° C., pH 5.7, read-out: Minimum Inhibitory Concentration
Experimental: as §4, §5, §6, §1, §7

Chaetomium globosum = assay: as above; type: cell-based; conditions: 72 h, three days at 25° C., pH 5.7, read-out: Minimum Inhibitory Concentration
Experimental: as §4, §5, §6, §1, §7

Botrytis cinerea = assay: as above; type: cell-based; conditions: 72 h, three days at 25° C., pH 5.7, read-out: Minimum Inhibitory Concentration
Experimental: as §4, §5, §6, §1, §7

Colletotrichum phomoides = assay: as above; type: cell-based; conditions: 72 h, three days at 25° C., pH 5.7, read-out: Minimum Inhibitory Concentration
Experimental: as §4, §5, §6, §1, §7

Penicillium notatum = assay: as above; type: cell-based; conditions: Penicillium chrysogenum, 72 h, three days at 25° C., pH 5.7, read-out: Minimum Inhibitory Concentration
Experimental: as §4, §5, §6, §1, §7

Rhodotorula glutinis = assay: as above; type: cell-based; conditions: 72 h, three days at 25° C., pH 5.7, read-out: Minimum Inhibitory Concentration
Experimental: as §4, §5, §6, §1, §7

[13] = system: Fusarium oxysporum cubense; assay: as above; type: cell-based; conditions: 72 h, three days at 25° C., pH 5.7, read-out: Minimum Inhibitory Concentration
Experimental: as §4, §5, §6, §1, §7

Aspergillus fumigatus = assay: as above; type: cell-based; conditions: 72 h, three days at 25° C., pH 5.7, read-out: Minimum Inhibitory Concentration
Experimental: as §4, §5, §6, §1, §7

Aspergillus terreus = assay: as above; type: cell-based; conditions: 72 h, three days at 25° C., pH 5.7, read-out: Minimum Inhibitory Concentration
Experimental: as §4, §5, §6, §1, §7

Pseudomonas aeruginosa [14] = assay: in vitro agar plate determination (Table VII); type: cell-based; conditions: agar plates at 10, 25 and 50 mcg. per ml., 24 hours, read-out: Minimum Inhibitory Concentration
Experimental: (§8) The antimicrobial activities of […] (Compound G) were determined concurrently with 5-bromo-2-methyl-5-nitro-1,3-dioxane (Compound C) and 5-bromo-5-nitro-1,3-dioxane (Compound B) against the same six organisms shown in Table II. […] The tests were in vitro determinations utilizing agar plates containing the active compound at 10, 25 and 50 mcg. per ml. of agar. The organisms, at concentrations of 10^6 organisms per milliliter, were streaked on the solidified agar. The plates were incubated for 24 hours and the presence or absence of growth noted. The minimum inhibitory concentration (MIC) was determined as the lowest active compound concentration in the agar where no growth occurred.

Streptococcus faecalis [15] = assay: in vitro agar plate determination (Table VII); type: cell-based; conditions: Enterococcus faecalis; agar plates at 10, 25 and 50 mcg. per ml., 24 hours; read-out: Minimum Inhibitory Concentration
Experimental: as §8

Candida albicans [16] = assay: in vitro agar plate determination (Table VII); type: cell-based; conditions: agar plates at 10, 25 and 50 mcg. per ml., 24 hours, read-out: Minimum Inhibitory Concentration
Experimental: as §8

Staphylococcus aureus [17] = assay: in vitro agar plate determination (Table VII); type: cell-based; conditions: agar plates at 10, 25 and 50 mcg. per ml., 24 hours, read-out: Minimum Inhibitory Concentration
Experimental: as §8

Escherichia coli [18] = assay: in vitro agar plate determination (Table VII); type: cell-based; conditions: agar plates at 10, 25 and 50 mcg. per ml., 24 hours, read-out: Minimum Inhibitory Concentration
Experimental: as §8

Aspergillus niger [19] = assay: in vitro agar plate determination (Table VII); type: cell-based; conditions: agar plates at 10, 25 and 50 mcg. per ml., 24 hours, read-out: Minimum Inhibitory Concentration
Experimental: as §8

microorganisms = assay: antimicrobial tests on isomeric mixtures; type: cell-based; conditions: one high in the cis- form, the other high in the trans- form
Experimental: The novel compounds of this embodiment of the present invention, exemplified in Examples 1, 2, 3, and 4 can exist as cis- and trans-isomers. The procedure outlined in Example 1 produces a ratio of isomers of about 9:1. It is the intent of this invention to include both geometric isomers as chemical entities as well as the isomeric mixture. […] Consequently, the utility tests described hereinafter were conducted employing the isomeric mixture (about 9:1) prepared as detailed in Example 1.

human skin = conditions: in vivo
From the text: The following protocol was followed in testing each compound.
Two-hundred subjects were employed in each investigation. The repeated insult technique was used in the patch test. A different group of subjects were utilized for each evaluation.
The technique used for the patch test called for a series of 9 induction patches of each test material to be placed on each of the subjects. The series was followed two weeks later by a single "challenge" patch of each test material to detect skin sensitization.
The series of nine induction patches was applied on Monday, Wednesday and Thursday and allowed to contact the skin for 24 hours, after which time they were removed and the skin sites graded for irritation. Thursday's patches were placed immediately after removal and grading of Wednesday's applications. After the ninth induction patches had been placed, a non-patching period of 2 weeks elapsed before the challenge patches were applied to detect sensitization reactions. For this 24-hour patch, a new skin site was used. This site was invariably chosen adjacent to an induction site; i.e., one where repeated applications had been made during the series of nine induction patches. The challenge applications were graded at 24 and 72 hours after application.
The skin applications for each material were made using oval-shaped adhesive patches (1" × 11/4") with circular gauze centers. The gauze centers were coated with approximately 0.03 ml. of the respective test material just prior to application.
The scoring criteria used for skin irritation reactions and in evaluating the sensitization evidenced on the challenge application follows:
Four separate formulations of each compound were tested along with two formulations of parabens.
A reading of 5 or more on the 8-point scale was deemed to be indicative of the development of skin sensitization to the test compound.

[20] = chemical stability towards pH / alkali; type: physicochemical; conditions: pH 5-9
[21] = solubility in water and mineral oil; type: physicochemical; conditions: compared with other species of the invention

| SMILES | MIC (Propionibacterium acnes) | MIC (Pseudomonas aeruginosa [1]) | MIC (Streptococcus faecalis [2]) | MIC (Candida albicans [3]) | MIC (Staphylococcus aureus [4]) | MIC (Escherichia coli [5]) | MIC (Aspergillus niger [6]) | MIC (Pseudomonas aeruginosa [7]) | MIC (Streptococcus faecalis [8]) | MIC (Staphylococcus aureus [9]) | MIC (Escherichia coli [10]) | MIC (Microsporum gypseum) | MIC [12] | MIC (Chaetomium globosum) | MIC (Botrytis cinerea) | MIC (Colletotrichum phomoides) | MIC (Penicillium notatum) | MIC (Rhodotorula glutinis) | MIC [13] | MIC (Aspergillus fumigatus) | also measured |
| --- | --- | --- | --- | --- | --- | --- | --- | --- | --- | --- | --- | --- | --- | --- | --- | --- | --- | --- | --- | --- | --- |
| O=[N+]([O-])C(Br)(CO)CO [Compound A, 2-bromo-2-nitropropane-1,3-diol] | 6.25 µg/mL (≈ 31.3 µM) | 6.25 µg/mL (≈ 31.3 µM) | 12.5 µg/mL (≈ 62.5 µM) | > 50 µg/mL | 12.5 µg/mL (≈ 62.5 µM) | 6.25 µg/mL (≈ 31.3 µM) | > 50 µg/mL | 12.5 µg/mL (≈ 62.5 µM) | 25 µg/mL (≈ 125 µM) | 25 µg/mL (≈ 125 µM) | 12.5 µg/mL (≈ 62.5 µM) | 50 µg/mL (≈ 250 µM) | > 100 µg/mL | < 6.25 µg/mL | 25 µg/mL (≈ 125 µM) | > 100 µg/mL | 100 µg/mL (≈ 500 µM) | 100 µg/mL (≈ 500 µM) | 25 µg/mL (≈ 125 µM) | < 6.25 µg/mL | chemical stability towards alkali [11]: chemically unstable towards alkali; MIC (Aspergillus terreus): 25 µg/mL (≈ 125 µM) |
| CC1OCC(Br)([N+](=O)[O-])CO1 (centres unmarked) [Compound C, 5-bromo-2-methyl-5-nitro-1,3-dioxane] | 6.25 µg/mL (≈ 27.7 µM) | 25 µg/mL (≈ 111 µM) | 12.5 µg/mL (≈ 55.3 µM) | 6.25 µg/mL (≈ 27.7 µM) | 12.5 µg/mL (≈ 55.3 µM) | 12.5 µg/mL (≈ 55.3 µM) | 12.5 µg/mL (≈ 55.3 µM) | 25 µg/mL (≈ 111 µM) | 25 µg/mL (≈ 111 µM) | 25 µg/mL (≈ 111 µM) | 25 µg/mL (≈ 111 µM) | 100 µg/mL (≈ 442 µM) | > 100 µg/mL | < 6.25 µg/mL | 12.5 µg/mL (≈ 55.3 µM) | 100 µg/mL (≈ 442 µM) | 25 µg/mL (≈ 111 µM) | 100 µg/mL (≈ 442 µM) | 12.5 µg/mL (≈ 55.3 µM) | < 6.25 µg/mL | MIC (Pseudomonas aeruginosa [14]): 25 µg/mL (≈ 111 µM); MIC (Streptococcus faecalis [15]): 12.5 µg/mL (≈ 55.3 µM); MIC (Candida albicans [16]): 6.25 µg/mL (≈ 27.7 µM); MIC (Staphylococcus aureus [17]): 12.5 µg/mL (≈ 55.3 µM); MIC (Escherichia coli [18]): 12.5 µg/mL (≈ 55.3 µM); MIC (Aspergillus niger [19]): 12.5 µg/mL (≈ 55.3 µM); antimicrobial activity of isomeric mixtures (microorganisms): equal activity; subjects evaluated as being sensitive on the challenge test (human skin): none; chemical stability at pH [20]: chemically stable at pH's from 5.0 to 9.0; solubility in water and oil, qualitative [21]: superior solubility in water and oil; MIC (Aspergillus terreus): 12.5 µg/mL (≈ 55.3 µM) |
